Laboratory results from ChEMBL document CHEMBL1811764, “Structure-activity studies of RNA-binding oxazolidinone derivatives” (Bioorg Med Chem Lett, 2011).

Tests used:
Nucleic Acid [1] = assay: Binding affinity to Bacillus subtilis AM1A C11U antiterminator model RNA variant assessed as increase in fluorescence by FRET assay relative to control; format: nucleic-acid assay; set-up: concentration or dose not given beside the values
Nucleic Acid [2] = assay: Binding affinity to Bacillus subtilis AM1A antiterminator model RNA assessed as increase in fluorescence at 10 uM by FRET assay relative to control; format: nucleic-acid assay

O=C(Cc1ccc(-c2ccccc2)cc1)OC[C@H]1OC(=O)N[C@@H]1CN1CCN(c2ccccc2)CC1
Activity (Nucleic Acid [1]): 22.3%
Activity (Nucleic Acid [2]): 25.3%

CCCCCc1ccc(NC(=O)OC[C@H]2OC(=O)N[C@@H]2CN2CCN(c3ccccc3)CC2)cc1
Activity (Nucleic Acid [1]): 11.1%
Activity (Nucleic Acid [2]): 10.6%

O=C1N[C@H](CN2CCN(c3ccccc3)CC2)[C@@H](COC(=O)c2ccccc2I)O1
Activity (Nucleic Acid [1]): 22.4%
Activity (Nucleic Acid [2]): 28.6%

CC(C)(C)OC(=O)N[C@H](C(=O)OC[C@H]1OC(=O)N[C@@H]1CN1CCN(c2ccccc2)CC1)c1ccccc1
Activity (Nucleic Acid [1]): 19.4%
Activity (Nucleic Acid [2]): 26.7%

CCCCCC(=O)OC[C@H]1OC(=O)N[C@@H]1CN1CCN(c2ccccc2)CC1
Activity (Nucleic Acid [1]): 21%
Activity (Nucleic Acid [2]): 15.5%

CCCCNC(=O)OC[C@H]1OC(=O)N[C@@H]1CN1CCN(c2ccccc2)CC1
Activity (Nucleic Acid [1]): 14%
Activity (Nucleic Acid [2]): 10.5%

CC(=O)c1ccc(NC(=O)OC[C@H]2OC(=O)N[C@@H]2CN2CCN(c3ccccc3)CC2)cc1
Activity (Nucleic Acid [1]): 13.4%
Activity (Nucleic Acid [2]): 7.7%

O=C(Nc1ccccc1)OC[C@H]1OC(=O)N[C@@H]1CN1CCN(c2ccccc2)CC1
Activity (Nucleic Acid [1]): 11.2%
Activity (Nucleic Acid [2]): 8.4%

O=C(CCc1ccccc1)OC[C@H]1OC(=O)N[C@@H]1CN1CCN(c2ccccc2)CC1
Activity (Nucleic Acid [1]): 26.1%
Activity (Nucleic Acid [2]): 20.6%

CC(C)(C)C(=O)OC[C@H]1OC(=O)N[C@@H]1CN1CCN(c2ccccc2)CC1
Activity (Nucleic Acid [1]): 13.2%
Activity (Nucleic Acid [2]): 7.1%

O=C1N[C@H](CN2CCN(c3ccccc3)CC2)[C@@H](COC(=O)Oc2ccccc2)O1
Activity (Nucleic Acid [1]): 21.3%
Activity (Nucleic Acid [2]): 12.4%

Cc1cccc(C(C)(C)C)c1NC(=O)OC[C@H]1OC(=O)N[C@@H]1CN1CCN(c2ccccc2)CC1
Activity (Nucleic Acid [1]): 15.4%
Activity (Nucleic Acid [2]): 14.8%

O=C(COc1ccccc1)OC[C@H]1OC(=O)N[C@@H]1CN1CCN(c2ccccc2)CC1
Activity (Nucleic Acid [1]): 9.4%
Activity (Nucleic Acid [2]): 9.5%

CC(C)(C)OC(=O)NCCCCC(=O)OC[C@H]1OC(=O)N[C@@H]1CN1CCN(c2ccccc2)CC1
Activity (Nucleic Acid [1]): 27.7%
Activity (Nucleic Acid [2]): 29.4%

O=C1N[C@H](CN2CCN(c3ccccc3)CC2)[C@@H](COC(=O)c2ccccc2Cl)O1
Activity (Nucleic Acid [1]): 28.8%
Activity (Nucleic Acid [2]): 30.4%

CN(C)c1cccc(C(=O)OC[C@H]2OC(=O)N[C@@H]2CN2CCN(c3ccccc3)CC2)c1
Activity (Nucleic Acid [1]): 27.1%
Activity (Nucleic Acid [2]): 24.6%

Cc1c(C(=O)OC[C@H]2OC(=O)N[C@@H]2CN2CCN(c3ccccc3)CC2)cccc1[N+](=O)[O-]
Activity (Nucleic Acid [1]): 24.5%
Activity (Nucleic Acid [2]): 23.3%

O=C1N[C@H](CN2CCN(c3ccccc3)CC2)[C@@H](COC(=O)c2cc(OCc3ccccc3)c(OCc3ccccc3)c(OCc3ccccc3)c2)O1
Activity (Nucleic Acid [1]): 18.6%
Activity (Nucleic Acid [2]): 14.3%

O=C(Cc1ccc([N+](=O)[O-])cc1)OC[C@H]1OC(=O)N[C@@H]1CN1CCN(c2ccccc2)CC1
Activity (Nucleic Acid [1]): 16.5%
Activity (Nucleic Acid [2]): 9.1%

O=C(Nc1ccc([N+](=O)[O-])cc1)OC[C@H]1OC(=O)N[C@@H]1CN1CCN(c2ccccc2)CC1
Activity (Nucleic Acid [1]): -4.9%
Activity (Nucleic Acid [2]): -1.8%

O=C1N[C@H](CN2CCN(c3ccccc3)CC2)[C@@H](COC(=O)C2CCCCC2)O1
Activity (Nucleic Acid [1]): 20.7%
Activity (Nucleic Acid [2]): 19.5%

O=C(NCc1ccccc1)OC[C@H]1OC(=O)N[C@@H]1CN1CCN(c2ccccc2)CC1
Activity (Nucleic Acid [1]): 11.7%
Activity (Nucleic Acid [2]): 6.1%

Cc1ccc(C(=O)OC[C@H]2OC(=O)N[C@@H]2CN2CCN(c3ccccc3)CC2)cc1
Activity (Nucleic Acid [1]): 27.5%
Activity (Nucleic Acid [2]): 27.4%

O=C(CC1CC2CCC1C2)OC[C@H]1OC(=O)N[C@@H]1CN1CCN(c2ccccc2)CC1 (stereo partly specified)
Activity (Nucleic Acid [1]): 27.4%
Activity (Nucleic Acid [2]): 29.5%

COc1cccc(C(=O)OC[C@H]2OC(=O)N[C@@H]2CN2CCN(c3ccccc3)CC2)c1
Activity (Nucleic Acid [1]): 24.7%
Activity (Nucleic Acid [2]): 23.8%

Cc1cccc(NC(=O)OC[C@H]2OC(=O)N[C@@H]2CN2CCN(c3ccccc3)CC2)c1
Activity (Nucleic Acid [1]): 26.7%
Activity (Nucleic Acid [2]): 16.8%

O=C1N[C@H](CN2CCN(c3ccccc3)CC2)[C@@H](COC(=O)c2ccco2)O1
Activity (Nucleic Acid [1]): 14.7%
Activity (Nucleic Acid [2]): 6.4%

O=C(CCCCCc1ccccc1)OC[C@H]1OC(=O)N[C@@H]1CN1CCN(c2ccccc2)CC1
Activity (Nucleic Acid [1]): 30.9%
Activity (Nucleic Acid [2]): 32.6%

CCc1ccc(NC(=O)OC[C@H]2OC(=O)N[C@@H]2CN2CCN(c3ccccc3)CC2)cc1
Activity (Nucleic Acid [1]): 19.1%
Activity (Nucleic Acid [2]): 18.3%

O=C(Nc1cccc([N+](=O)[O-])c1)OC[C@H]1OC(=O)N[C@@H]1CN1CCN(c2ccccc2)CC1
Activity (Nucleic Acid [1]): 0.2%
Activity (Nucleic Acid [2]): -1.1%

O=C(CCCC1CCCCC1)OC[C@H]1OC(=O)N[C@@H]1CN1CCN(c2ccccc2)CC1
Activity (Nucleic Acid [1]): 29%
Activity (Nucleic Acid [2]): 31.8%

COc1ccc(CC(=O)OC[C@H]2OC(=O)N[C@@H]2CN2CCN(c3ccccc3)CC2)cc1
Activity (Nucleic Acid [1]): 18.8%
Activity (Nucleic Acid [2]): 13.7%

CCCC(=O)OC[C@H]1OC(=O)N[C@@H]1CN1CCN(c2ccccc2)CC1
Activity (Nucleic Acid [1]): 19.7%
Activity (Nucleic Acid [2]): 10.1%

CC(C)CCC(=O)OC[C@H]1OC(=O)N[C@@H]1CN1CCN(c2ccccc2)CC1
Activity (Nucleic Acid [1]): 20.2%
Activity (Nucleic Acid [2]): 15%

O=C1N[C@H](CN2CCN(c3ccccc3)CC2)[C@@H](COC(=O)c2c(Cl)cccc2Cl)O1
Activity (Nucleic Acid [1]): 16.2%
Activity (Nucleic Acid [2]): 15.3%

O=C(Cc1ccc(Cl)c(Cl)c1)OC[C@H]1OC(=O)N[C@@H]1CN1CCN(c2ccccc2)CC1
Activity (Nucleic Acid [1]): 28.9%
Activity (Nucleic Acid [2]): 29.1%

COc1ccc(NC(=O)OC[C@H]2OC(=O)N[C@@H]2CN2CCN(c3ccccc3)CC2)cc1
Activity (Nucleic Acid [1]): 7.7%
Activity (Nucleic Acid [2]): 7.8%

O=C1N[C@H](CN2CCN(c3ccccc3)CC2)[C@@H](COC(=O)c2ccccc2Oc2ccccc2)O1
Activity (Nucleic Acid [1]): 26.5%
Activity (Nucleic Acid [2]): 30.8%

CC(C)CC(=O)OC[C@H]1OC(=O)N[C@@H]1CN1CCN(c2ccccc2)CC1
Activity (Nucleic Acid [1]): 14%
Activity (Nucleic Acid [2]): 9.5%

O=C(Cc1ccccc1)OC[C@H]1OC(=O)N[C@@H]1CN1CCN(c2ccccc2)CC1
Activity (Nucleic Acid [1]): 15.9%
Activity (Nucleic Acid [2]): 8.5%

O=C1N[C@H](CN2CCN(c3ccccc3)CC2)[C@@H](COC(=O)c2ccccc2)O1
Activity (Nucleic Acid [1]): 18.6%
Activity (Nucleic Acid [2]): 14.8%

CC(C)(C)NC(=O)OC[C@H]1OC(=O)N[C@@H]1CN1CCN(c2ccccc2)CC1
Activity (Nucleic Acid [1]): 8.7%
Activity (Nucleic Acid [2]): 8.9%

CC(C)=CCCC(C)CC(=O)OC[C@H]1OC(=O)N[C@@H]1CN1CCN(c2ccccc2)CC1 (stereo partly specified)
Activity (Nucleic Acid [1]): 42.4%
Activity (Nucleic Acid [2]): 38.9%

CCCCCCCC(=O)OC[C@H]1OC(=O)N[C@@H]1CN1CCN(c2ccccc2)CC1
Activity (Nucleic Acid [1]): 25.4%
Activity (Nucleic Acid [2]): 18.1%

CCCNC(=O)OC[C@H]1OC(=O)N[C@@H]1CN1CCN(c2ccccc2)CC1
Activity (Nucleic Acid [1]): 9.6%
Activity (Nucleic Acid [2]): 10.3%

O=C(Nc1ccc(Cl)c(Cl)c1)OC[C@H]1OC(=O)N[C@@H]1CN1CCN(c2ccccc2)CC1
Activity (Nucleic Acid [1]): 14.7%
Activity (Nucleic Acid [2]): 8.9%

O=C1N[C@H](CN2CCN(c3ccccc3)CC2)[C@@H](COC(=O)c2ccc(Cl)cc2)O1
Activity (Nucleic Acid [1]): 22.8%
Activity (Nucleic Acid [2]): 29.1%

N#Cc1ccccc1C(=O)OC[C@H]1OC(=O)N[C@@H]1CN1CCN(c2ccccc2)CC1
Activity (Nucleic Acid [1]): 16.7%
Activity (Nucleic Acid [2]): 7.3%

COc1cccc(CC(=O)OC[C@H]2OC(=O)N[C@@H]2CN2CCN(c3ccccc3)CC2)c1
Activity (Nucleic Acid [1]): 19.6%
Activity (Nucleic Acid [2]): 18.9%

CC(C)(C)OC(=O)N[C@@H](C(=O)OC[C@H]1OC(=O)N[C@@H]1CN1CCN(c2ccccc2)CC1)c1ccccc1
Activity (Nucleic Acid [1]): 42.6%
Activity (Nucleic Acid [2]): 39.6%

O=C1N[C@H](CN2CCN(c3ccccc3)CC2)[C@@H](COC(=O)c2ccc([N+](=O)[O-])cc2)O1
Activity (Nucleic Acid [1]): 15.2%
Activity (Nucleic Acid [2]): 13.1%

CCCCCCNC(=O)OC[C@H]1OC(=O)N[C@@H]1CN1CCN(c2ccccc2)CC1
Activity (Nucleic Acid [1]): 23.7%
Activity (Nucleic Acid [2]): 17.4%

O=C1N[C@H](CN2CCN(c3ccccc3)CC2)[C@@H](COC(=O)c2ccccc2F)O1
Activity (Nucleic Acid [1]): 20.4%
Activity (Nucleic Acid [2]): 18.5%
